According to PubChem BioAssay (NCI):
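Abbreviation: GI50, concentration required for 50% inhibition of growth. TGI marks complete inhibition of growth.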

Experiments:
Experiment in all cases: inhibition of tumour cell growth, NCI panel, 384-well format
NCI-H23 lung = system: NCI-H23 lung
MALME-3M melanoma = system: MALME-3M melanoma
COLO 205 colon = system: COLO 205 colon
MDA-MB-468 breast = system: MDA-MB-468 breast
EKVX NSCLC = system: EKVX NSCLC
OVCAR-5 ovarian = system: OVCAR-5 ovarian
HS 578T breast = system: HS 578T breast
SK-OV-3 ovarian = system: SK-OV-3 ovarian
DU-145 prostate = system: DU-145 prostate
NCI-H226 lung = system: NCI-H226 lung
PC-3 prostate = system: PC-3 prostate
SF-295 CNS = system: SF-295 CNS
HCT-116 colon = system: HCT-116 colon
SNB-75 CNS = system: SNB-75 CNS
NCI-H522 lung = system: NCI-H522 lung
RPMI-8226 leukemia = system: RPMI-8226 leukemia
A498 renal = system: A498 renal
HCC-2998 colon = system: HCC-2998 colon
UACC-257 melanoma = system: UACC-257 melanoma
TK-10 renal = system: TK-10 renal
HOP-62 NSCLC = system: HOP-62 NSCLC
SF-539 CNS = system: SF-539 CNS
MDA-MB-435 melanoma = system: MDA-MB-435 melanoma
HL-60(TB) leukemia = system: HL-60(TB) leukemia
U251 glioblastoma = system: U251 glioblastoma
ACHN renal = system: ACHN renal
OVCAR-8 ovarian = system: OVCAR-8 ovarian
MOLT-4 leukemia = system: MOLT-4 leukemia
NCI/ADR-RES ovarian = system: NCI/ADR-RES ovarian
LOX IMVI melanoma = system: LOX IMVI melanoma
OVCAR-4 ovarian = system: OVCAR-4 ovarian
NCI-H322M lung = system: NCI-H322M lung
HT29 colon = system: HT29 colon
NCI-H460 NSCLC = system: NCI-H460 NSCLC
MDA-MB-231 breast = system: MDA-MB-231 breast
SK-MEL-28 melanoma = system: SK-MEL-28 melanoma
T-47D breast = system: T-47D breast
UACC-62 melanoma = system: UACC-62 melanoma
KM12 colon = system: KM12 colon
A549 NSCLC = system: A549 NSCLC
MCF7 breast = system: MCF7 breast
M14 melanoma = system: M14 melanoma
SF-268 CNS = system: SF-268 CNS
SN12C renal = system: SN12C renal
HCT-15 colon = system: HCT-15 colon
OVCAR-3 ovarian = system: OVCAR-3 ovarian
SNB-19 CNS = system: SNB-19 CNS
HOP-92 NSCLC = system: HOP-92 NSCLC
IGROV1 ovarian = system: IGROV1 ovarian
BT-549 breast = system: BT-549 breast
CAKI-1 renal = system: CAKI-1 renal
RXF 393 renal = system: RXF 393 renal
SR leukemia = system: SR leukemia
SK-MEL-5 melanoma = system: SK-MEL-5 melanoma

N#CCNC(=O)c1ccc(-c2ccnc(Nc3ccc(N4CCOCC4)cc3)n2)cc1
GI50 (NCI-H23 lung): 2.33 µM
TGI (NCI-H23 lung): 13.6 µM
GI50 (MALME-3M melanoma): 3.05 µM
TGI (MALME-3M melanoma): 23.5 µM
GI50 (COLO 205 colon): 4.24 µM
TGI (COLO 205 colon): 14.8 µM
GI50 (MDA-MB-468 breast): 1.37 µM
TGI (MDA-MB-468 breast): 3.2 µM
GI50 (EKVX NSCLC): 2.93 µM
TGI (EKVX NSCLC): 16.8 µM
GI50 (OVCAR-5 ovarian): 2.63 µM
TGI (OVCAR-5 ovarian): 5.71 µM
GI50 (HS 578T breast): 1.32 µM
TGI (HS 578T breast): 3.33 µM
GI50 (SK-OV-3 ovarian): 2.73 µM
TGI (SK-OV-3 ovarian): 20.7 µM
GI50 (DU-145 prostate): 1.55 µM
TGI (DU-145 prostate): 3.99 µM
GI50 (NCI-H226 lung): 1.43 µM
TGI (NCI-H226 lung): 3.66 µM
GI50 (PC-3 prostate): 2.9 µM
TGI (PC-3 prostate): 11.8 µM
GI50 (SF-295 CNS): 4.06 µM
TGI (SF-295 CNS): 17 µM
GI50 (HCT-116 colon): 1.51 µM
TGI (HCT-116 colon): 3.91 µM
GI50 (SNB-75 CNS): 2.52 µM
TGI (SNB-75 CNS): 15.5 µM
GI50 (NCI-H522 lung): 1.64 µM
TGI (NCI-H522 lung): 6.45 µM
GI50 (RPMI-8226 leukemia): 1.23 µM
TGI (RPMI-8226 leukemia): 2.87 µM
GI50 (A498 renal): 1.14 µM
TGI (A498 renal): 2.53 µM
GI50 (HCC-2998 colon): 1.93 µM
TGI (HCC-2998 colon): 4.18 µM
GI50 (UACC-257 melanoma): 3.19 µM
TGI (UACC-257 melanoma): 8.82 µM
GI50 (TK-10 renal): 1.25 µM
TGI (TK-10 renal): 3.27 µM
GI50 (HOP-62 NSCLC): 1.81 µM
TGI (HOP-62 NSCLC): 4.09 µM
GI50 (SF-539 CNS): 2.12 µM
TGI (SF-539 CNS): 10 µM
GI50 (MDA-MB-435 melanoma): 4.02 µM
TGI (MDA-MB-435 melanoma): 21.5 µM
GI50 (HL-60(TB) leukemia): 1.55 µM
TGI (HL-60(TB) leukemia): 2.89 µM
GI50 (U251 glioblastoma): 2.28 µM
TGI (U251 glioblastoma): 5.9 µM
GI50 (ACHN renal): 1.27 µM
TGI (ACHN renal): 4.14 µM
GI50 (OVCAR-8 ovarian): 3.68 µM
TGI (OVCAR-8 ovarian): 17.6 µM
GI50 (MOLT-4 leukemia): 2.07 µM
TGI (MOLT-4 leukemia): 3.99 µM
GI50 (NCI/ADR-RES ovarian): 21.4 µM
TGI (NCI/ADR-RES ovarian): > 100 µM
GI50 (LOX IMVI melanoma): 1.7 µM
TGI (LOX IMVI melanoma): 4.06 µM
GI50 (OVCAR-4 ovarian): 3.59 µM
TGI (OVCAR-4 ovarian): 11.1 µM
GI50 (NCI-H322M lung): 2.72 µM
TGI (NCI-H322M lung): 10.8 µM
GI50 (HT29 colon): 4.15 µM
TGI (HT29 colon): 24.6 µM
GI50 (NCI-H460 NSCLC): 1.06 µM
TGI (NCI-H460 NSCLC): 2.5 µM
GI50 (MDA-MB-231 breast): 1.89 µM
TGI (MDA-MB-231 breast): 16.8 µM
GI50 (SK-MEL-28 melanoma): 6.23 µM
TGI (SK-MEL-28 melanoma): 50.8 µM
GI50 (T-47D breast): 11 µM
TGI (T-47D breast): 39.9 µM
GI50 (UACC-62 melanoma): 3.57 µM
TGI (UACC-62 melanoma): 15.3 µM
GI50 (KM12 colon): 3.51 µM
TGI (KM12 colon): 74.1 µM
GI50 (A549 NSCLC): 3.19 µM
TGI (A549 NSCLC): 13.7 µM
GI50 (MCF7 breast): 2.24 µM
TGI (MCF7 breast): 8.44 µM
GI50 (M14 melanoma): 6.27 µM
TGI (M14 melanoma): 51.2 µM
GI50 (SF-268 CNS): 2.12 µM
TGI (SF-268 CNS): 6.6 µM
GI50 (SN12C renal): 0.787 µM
TGI (SN12C renal): 3.94 µM
GI50 (HCT-15 colon): 3.02 µM
TGI (HCT-15 colon): 10.7 µM
GI50 (OVCAR-3 ovarian): 4.64 µM
TGI (OVCAR-3 ovarian): 19 µM
GI50 (SNB-19 CNS): 7.84 µM
TGI (SNB-19 CNS): 28.3 µM
GI50 (HOP-92 NSCLC): 6.94 µM
TGI (HOP-92 NSCLC): 29 µM
GI50 (IGROV1 ovarian): 1.42 µM
TGI (IGROV1 ovarian): 3.91 µM
GI50 (BT-549 breast): 1.15 µM
TGI (BT-549 breast): 2.46 µM
GI50 (CAKI-1 renal): 1.23 µM
TGI (CAKI-1 renal): 3.19 µM
GI50 (RXF 393 renal): 1.61 µM
TGI (RXF 393 renal): 3.26 µM
GI50 (SR leukemia): 0.468 µM
TGI (SR leukemia): 1.29 µM
GI50 (SK-MEL-5 melanoma): 2.16 µM
TGI (SK-MEL-5 melanoma): 9.34 µM
